US12227482B2, “Compounds and compositions for the treatment of cancer” (The Regents of the University of California, priority 2016, dated 2025)

What was measured:
Format in all cases: cell-based
[1] = test system: LOX cells; assay: Cell viability (CellTiter-Glo ATP content) in LOX cells; settings: LOX, 72 h, 72 hours treatment, cell survival by CellTiter-Glo, 2% fetal bovine serum
Outline: (§1)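 Cells plated at 5,000 per well in antibiotic-free RPMI with 2% FBS, treated next day in triplicate with increasing compound doses (final DMSO 0.5%) for 72 hours. Viability read as ATP content by CellTiter-Glo luminescence; percent survival relative to vehicle control set as 100%.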

[2] = test system: MelJuSo cells; assay: Cell viability (CellTiter-Glo ATP content) in MelJuSo cells; settings: Homo sapiens, MEL-JUSO, 72 hours treatment, cell survival by CellTiter-Glo, 2% fetal bovine serum
Outline: as §1

[3] = test system: A549 cells; assay: Cell viability (CellTiter-Glo ATP content) in A549 cells; settings: Homo sapiens, A549, 72 h, 72 hours treatment, cell survival by CellTiter-Glo, 2% fetal bovine serum
Outline: as §1

| Structure (SMILES) | IC50 [1] | IC50 [2] | IC50 [3] |
| --- | --- | --- | --- |
| CCCCC1C(c2ccc(F)cc2)=NN(c2ccc(F)cc2F)C1(C)C(=O)NCCO (stereo not drawn) [Compound 84, 4-butyl-1-(2,4-difluorophenyl)-3-(4-fluorophenyl)-N-(2-hydroxyethyl)-5-methyl-4,5-dihydro-1H-pyrazole-5-carboxamide] | 1 to 2 µM | 0.5 to 1 µM | 1 to 2 µM |
| CC(C)(CO)CCCNC(=O)C1(C)C(c2ccsc2)C(c2ccc(F)cc2)=NN1c1ccc(F)cc1F (stereo not drawn) [Compound 85, 1-(2,4-difluorophenyl)-3-(4-fluorophenyl)-N-(5-hydroxy-4,4-dimethylpentyl)-5-methyl-4-(thiophen-3-yl)-4,5-dihydro-1H-pyrazole-5-carboxamide] | < 0.25 µM | < 0.25 µM | 0.25 to 0.5 µM |
| COCCNC(=O)C1(C)C(c2ccsc2)C(c2ccc(F)cc2)=NN1c1ccc(F)cc1F (stereo not drawn) [Compound 86, 1-(2,4-difluorophenyl)-3-(4-fluorophenyl)-N-(2-methoxyethyl)-5-methyl-4-(thiophen-3-yl)-4,5-dihydro-1H-pyrazole-5-carboxamide] | < 0.25 µM | < 0.25 µM | < 0.25 µM |
| CCCCC1(C)C(c2ccc(F)cc2)=NN(c2ccc(F)cc2F)C1(C)C(=O)NCCCC(C)(C)CO (stereo not drawn) [Compound 87, 4-butyl-1-(2,4-difluorophenyl)-3-(4-fluorophenyl)-N-(5-hydroxy-4,4-dimethylpentyl)-4,5-dimethyl-4,5-dihydro-1H-pyrazole-5-carboxamide] | > 2 µM | > 2 µM | > 2 µM |
| CCCCC1(C)C(c2ccc(F)cc2)=NN(c2ccc(F)cc2F)C1(C)C(=O)NCCOC (stereo not drawn) [Compound 88, 4-butyl-1-(2,4-difluorophenyl)-3-(4-fluorophenyl)-N-(2-methoxyethyl)-4,5-dimethyl-4,5-dihydro-1H-pyrazole-5-carboxamide] | > 2 µM | > 2 µM | > 2 µM |
| CCCCC1C(c2ccc(F)cc2F)=NN(c2ccc(F)cc2F)C1(C)C(=O)NCCCC(C)(C)CO (stereo not drawn) [Compound 89, 4-butyl-1,3-bis(2,4-difluorophenyl)-N-(5-hydroxy-4,4-dimethylpentyl)-5-methyl-4,5-dihydro-1H-pyrazole-5-carboxamide] | 0.5 to 1 µM | 0.5 to 1 µM | 1 to 2 µM |
| CCCCC1C(c2ccc(F)cc2F)=NN(c2ccc(F)cc2F)C1(C)C(=O)NCCOC (stereo not drawn) [Compound 90, 4-butyl-1,3-bis(2,4-difluorophenyl)-N-(2-methoxyethyl)-5-methyl-4,5-dihydro-1H-pyrazole-5-carboxamide] | 0.5 to 1 µM | < 0.25 µM | 0.5 to 1 µM |
| CC(C)(CO)CCCNC(=O)C1(C)C(c2ccco2)C(c2ccc(F)cc2)=NN1c1ccc(F)cc1F (stereo not drawn) [Compound 91, 1-(2,4-difluorophenyl)-3-(4-fluorophenyl)-4-(furan-2-yl)-N-(5-hydroxy-4,4-dimethylpentyl)-5-methyl-4,5-dihydro-1H-pyrazole-5-carboxamide] | 0.25 to 0.5 µM | < 0.25 µM | 0.25 to 0.5 µM |
| COCCNC(=O)C1(C)C(c2ccco2)C(c2ccc(F)cc2)=NN1c1ccc(F)cc1F (stereo not drawn) [Compound 92, 1-(2,4-difluorophenyl)-3-(4-fluorophenyl)-4-(furan-2-yl)-N-(2-methoxyethyl)-5-methyl-4,5-dihydro-1H-pyrazole-5-carboxamide] | < 0.25 µM | < 0.25 µM | < 0.25 µM |
| CCCCC1C(c2c(F)cc(F)cc2F)=NN(c2ccc(F)cc2F)C1(C)C(=O)NCCCC(C)(C)CO (stereo not drawn) [Compound 97, 4-butyl-1-(2,4-difluorophenyl)-N-(5-hydroxy-4,4-dimethylpentyl)-5-methyl-3-(2,4,6-trifluorophenyl)-4,5-dihydro-1H-pyrazole-5-carboxamide] | 1 to 2 µM | 0.5 to 1 µM | > 2 µM |
| CCCCC1C(c2c(F)cc(F)cc2F)=NN(c2ccc(F)cc2F)C1(C)C(=O)NCC(=O)OC (stereo not drawn) [Compound 98, methyl 2-(4-butyl-1-(2,4-difluorophenyl)-5-methyl-3-(2,4,6-trifluorophenyl)-4,5-dihydro-1H-pyrazole-5-carboxamido)acetate] | > 2 µM | 0.5 to 1 µM | > 2 µM |
| Cc1ccc(C2C(c3ccc(F)cc3)=NN(c3ccc(F)cc3F)C2(C)C(=O)NCCCC(C)(C)CO)s1 (stereo not drawn) [Compound 99, 1-(2,4-difluorophenyl)-3-(4-fluorophenyl)-N-(5-hydroxy-4,4-dimethylpentyl)-5-methyl-4-(5-methylthiophen-2-yl)-4,5-dihydro-1H-pyrazole-5-carboxamide] | > 2 µM | 1 to 2 µM | > 2 µM |
| COCCNC(=O)C1(C)C(c2ccc(C)s2)C(c2ccc(F)cc2)=NN1c1ccc(F)cc1F (stereo not drawn) [Compound 100, 1-(2,4-difluorophenyl)-3-(4-fluorophenyl)-N-(2-methoxyethyl)-5-methyl-4-(5-methylthiophen-2-yl)-4,5-dihydro-1H-pyrazole-5-carboxamide] | 1 to 2 µM | 0.25 to 0.5 µM | > 2 µM |
| CC(C)(CO)CCCNC(=O)C1(C)C(c2ccc(Cl)s2)C(c2ccc(F)cc2)=NN1c1ccc(F)cc1F (stereo not drawn) [Compound 101, 4-(5-chlorothiophen-2-yl)-1-(2,4-difluorophenyl)-3-(4-fluorophenyl)-N-(5-hydroxy-4,4-dimethylpentyl)-5-methyl-4,5-dihydro-1H-pyrazole-5-carboxamide] | > 2 µM | 0.5 to 1 µM | > 2 µM |
| COCCNC(=O)C1(C)C(c2ccc(Cl)s2)C(c2ccc(F)cc2)=NN1c1ccc(F)cc1F (stereo not drawn) [Compound 102, 4-(5-chlorothiophen-2-yl)-1-(2,4-difluorophenyl)-3-(4-fluorophenyl)-N-(2-methoxyethyl)-5-methyl-4,5-dihydro-1H-pyrazole-5-carboxamide] | 0.5 to 1 µM | 0.25 to 0.5 µM | 1 to 2 µM |
| COC(=O)CNC(=O)C1(C)C(c2cccs2)C(c2ccc(F)cc2)=NN1c1ccc(F)cc1F (stereo not drawn) [Compound 103, methyl 2-(1-(2,4-difluorophenyl)-3-(4-fluorophenyl)-5-methyl-4-(thiophen-2-yl)-4,5-dihydro-1H-pyrazole-5-carboxamido)acetate] | 0.5 to 1 µM | < 0.25 µM | 0.5 to 1 µM |
| CC(C)(O)CNC(=O)CNC(=O)C1(C)C(c2cccs2)C(c2ccc(F)cc2)=NN1c1ccc(F)cc1F (stereo not drawn) [Compound 104, 1-(2,4-difluorophenyl)-3-(4-fluorophenyl)-N-(2-(2-hydroxy-2-methylpropylamino)-2-oxoethyl)-5-methyl-4-(thiophen-2-yl)-4,5-dihydro-1H-pyrazole-5-carboxamide] | 1 to 2 µM | 0.5 to 1 µM | > 2 µM |
| CC1(C(=O)NCC(=O)N2CCS(=O)(=O)CC2)C(c2cccs2)C(c2ccc(F)cc2)=NN1c1ccc(F)cc1F (stereo not drawn) [Compound 105, 1-(2,4-difluorophenyl)-3-(4-fluorophenyl)-5-methyl-N-(1,1-dioxo-1-thiomorpholine-2-oxoethyl)-4-(thiophen-2-yl)-4,5-dihydro-1H-pyrazole-5-carboxamide] | > 2 µM | > 2 µM | > 2 µM |
| CC1(C(=O)NCC(=O)N2CCOCC2)C(c2cccs2)C(c2ccc(F)cc2)=NN1c1ccc(F)cc1F (stereo not drawn) [Compound 106, 1-(2,4-difluorophenyl)-3-(4-fluorophenyl)-5-methyl-N-(2-morpholino-2-oxoethyl)-4-(thiophen-2-yl)-4,5-dihydro-1H-pyrazole-5-carboxamide] | > 2 µM | > 2 µM | > 2 µM |
| CN(C)CCNC(=O)CNC(=O)C1(C)C(c2cccs2)C(c2ccc(F)cc2)=NN1c1ccc(F)cc1F (stereo not drawn) [Compound 107, 1-(2,4-difluorophenyl)-N-(2-(2-(dimethylamino)ethylamino)-2-oxoethyl)-3-(4-fluorophenyl)-5-methyl-4-(thiophen-2-yl)-4,5-dihydro-1H-pyrazole-5-carboxamide] | > 2 µM | 1 to 2 µM | > 2 µM |
| CC1(C(=O)NCC(=O)NC2COC2)C(c2cccs2)C(c2ccc(F)cc2)=NN1c1ccc(F)cc1F (stereo not drawn) [Compound 108, 1-(2,4-difluorophenyl)-3-(4-fluorophenyl)-5-methyl-N-(2-(oxetan-3-ylamino)-2-oxoethyl)-4-(thiophen-2-yl)-4,5-dihydro-1H-pyrazole-5-carboxamide] | > 2 µM | > 2 µM | > 2 µM |
| CC1(C(=O)NCC(=O)NCCS(C)(=O)=O)C(c2cccs2)C(c2ccc(F)cc2)=NN1c1ccc(F)cc1F (stereo not drawn) [Compound 109, 1-(2,4-difluorophenyl)-3-(4-fluorophenyl)-5-methyl-N-(2-(2-(methylsulfonyl)ethylamino)-2-oxoethyl)-4-(thiophen-2-yl)-4,5-dihydro-1H-pyrazole-5-carboxamide] | > 2 µM | > 2 µM | > 2 µM |
| CC1(O)CC(NC(=O)CNC(=O)C2(C)C(c3cccs3)C(c3ccc(F)cc3)=NN2c2ccc(F)cc2F)C1 (stereo not drawn) [Compound 110, 1-(2,4-difluorophenyl)-3-(4-fluorophenyl)-N-(2-(3-hydroxy-3-methylcyclobutylamino)-2-oxoethyl)-5-methyl-4-(thiophen-2-yl)-4,5-dihydro-1H-pyrazole-5-carboxamide] | > 2 µM | > 2 µM | > 2 µM |
| CON(C)C(=O)CNC(=O)C1(C)C(c2cccs2)C(c2ccc(F)cc2)=NN1c1ccc(F)cc1F (stereo not drawn) [Compound 111, 1-(2,4-difluorophenyl)-3-(4-fluorophenyl)-N-(2-(methoxy(methyl)amino)-2-oxoethyl)-5-methyl-4-(thiophen-2-yl)-4,5-dihydro-1H-pyrazole-5-carboxamide] | > 2 µM | > 2 µM | > 2 µM |
